Reference: US5753631A, “Intercellular adhesion mediators” (Cytel Corporation, priority 1995, dated 1998)

Legend:
recombinant E-selectin = biological target: T1, recombinant E-selectin (Homo sapiens, UniProt P16581); test: HL-60 cell binding to recombinant E-selectin; format: cell-based; conditions: for inhibition of binding of HL-60 cells to recombinant E-selectin: FIG. 13
T1 sequence (P16581 22-556 limits assumed): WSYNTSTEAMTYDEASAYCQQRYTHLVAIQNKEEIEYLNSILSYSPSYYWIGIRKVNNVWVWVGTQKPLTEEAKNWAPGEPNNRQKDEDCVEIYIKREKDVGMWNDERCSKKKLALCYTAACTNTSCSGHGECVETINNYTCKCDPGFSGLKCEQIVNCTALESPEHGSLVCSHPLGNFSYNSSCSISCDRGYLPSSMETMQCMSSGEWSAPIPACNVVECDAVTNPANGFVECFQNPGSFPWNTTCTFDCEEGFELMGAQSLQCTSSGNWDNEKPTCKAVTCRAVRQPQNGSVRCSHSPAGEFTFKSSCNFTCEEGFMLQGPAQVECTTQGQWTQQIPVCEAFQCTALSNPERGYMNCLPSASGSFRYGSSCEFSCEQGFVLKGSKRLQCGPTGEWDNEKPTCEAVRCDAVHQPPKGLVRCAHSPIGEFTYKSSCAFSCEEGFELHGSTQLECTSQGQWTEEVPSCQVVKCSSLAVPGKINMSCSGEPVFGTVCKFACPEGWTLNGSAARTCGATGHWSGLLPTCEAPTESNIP
Experimental: In this assay recombinant soluble E-selectin is bound to the plastic surface of a 96 well ELISA plate. Dilutions of test compounds are added to the wells followed by HL-60 cells which bear the ligand for E-selectin. The cells are allowed to adhere to the E-selectin coated assay plate and the nonadherent cells are removed by washing the plate with an automated plate washer. Bound cells are quantitated by measuring the cellular enzyme myeloperoxidase. The concentration of oligosaccharide required to achieve 50% inhibition of control adhesion is used to compare analogs for potency.
Microflex III 96 well ELISA plates were coated with 50 μL of recombinant E-selectin (4 μg/mL) in Dulbecco's phosphate buffered saline (DPBS) and incubated at room temperature for 3 hours. The plates were then washed three times with 200 μL DPBS containing bovine serum albumin (10 mg/mL: DPBS-BSA) and incubated at room temperature for 60 minutes with DPBS-BSA.
Oligosaccharides to be tested were prepared in 1.5 mL eppendorf tubes by adding enough DPBS to make each sample a 10 mM solution according to its molecular weight. The pH was adjusted to be within 7.0 and 7.4.
After 30 minutes 2×10^5 HL-60 cells (10^7 /mL) were added and incubated for 15 minutes at room temperature. The unbound cells were removed by washing the plate 3 times with HBSS containing HEPES buffer (20 mM), glucose (0.2%), CaCl2 (1 mM) and BSA (10 mg/mL). After removal of the wash buffer the bound cells remaining were lysed by addition of Nonidet P 40 (0.1%) in 25 mM citrate/phosphate buffer. After 5 minutes 50 μL of o-phenylenediamine dihydrochloride (1 mg/mL) in citrate/phosphate buffer containing 0.001% hydrogen peroxide was added to each well. After 5 to 10 minutes the development of color was halted by the addition of 40 μL of H2 SO4. Color developed was measured in a plate reading spectrophotometer at 492 nm.

[1] = system: CVF-induced acute lung injury; test: Cobra venom factor (CVF)-induced acute lung injury in the rat; format: in vivo
Experimental: Groups of rats were pretreated with either vehicle, SLN-OH (0.6 mg/Kg), or with SLX-OH (0.6 mg/Kg) 5 minutes prior to administration of either CVF or PBS. Each bar represents the mean of 6 animals and vertical lines represent the standard error of the mean.
Groups of rats were pretreated with either vehicle or Z at the indicated doses 5 minutes prior to administration of CVF or PBS. Each point represents the mean of 6 animals and vertical lines represent the standard error of the mean.
The intravenous injection of CVF produces intravascular complement activation which results in lung injury, defined as an increase in neutrophil accumulation within the lung, an increase in pulmonary vascular permeability and in lung hemorrhage. It is likely that intravascular complement activation results in the generation of a wide range of inflammatory mediators. Of particular relevance to the studies described here is generation of the split fifth complement component, C5a, which can stimulate the release of histamine from circulating basophils and tissue mast cells. […] The expression of selectins, including P-selectin, is a necessary first step in the process of leukocyte adherence to vascular endothelium.
Animals were dosed with different oligosaccharide preparations or phosphate buffered saline (PBS) five minutes before administration of cobra venom factor (20 units/Kg, i.v.). Included in this material was an aliquot of ^125 I-bovine serum albumin (0.5 μCi) and ^51 Cr labelled autologous red blood cells (0.5 μCi) for measuring plasma extravasation and hemorrhage respectively. Thirty minutes after administration of the cobra venom factor the animals were anesthetized with ketamine hydrochloride (10 mg/Kg) and exsanguinated via the posterior vena cava. The lung vasculature was then perfused through the right cardiac ventricle with 10 mL of PBS. The lungs were removed and the amount of radioactivity remaining within the tissue assessed with a gamma scintillation counter. Increased pulmonary vascular permeability was measured as the ratio of ^125 I in lung tissue compared with the amount present in 1 mL of venous blood obtained at the time of death. Lung hemorrhage was measured as the ratio of ^51 Cr in lung tissue compared with the amount present in 1 mL of venous blood obtained at the time of death. Neutrophil accumulation in lungs was determined by measuring the myeloperoxidase activity of lungs homogenized in PBS. Myeloperoxidase activity in lung supernatants was assayed by measuring the change in absorbance at 460 nm resulting from decomposition of H2 O2 in the presence of o-dianisidine

[2] = system: IgG immune complex-induced acute lung injury; test: IgG immune complex-induced acute lung injury in the rat; format: in vivo, rat (male Long-Evans); conditions: for effect on IgG immune complex-induced neutrophil accumulation / lung injury: conclusion in words
[3] = dose range 0.15 to 1.5 mg/Kg (FIG. 17)
[4] = i.v. at 2.5, 3.0 and 3.5 h (FIG. 18), P<0.05

SMILES | inhibition of binding of HL-60 cells to recombinant E-selectin (recombinant E-selectin) | effect on CVF-induced permeability, hemorrhage, MPO / lung injury ([1]; in words, prior to CVF, 30 minutes) | effect on IgG immune complex-induced neutrophil accumulation / lung injury [2] | effect on hemorrhage ([2]; versus PBS treated animals) | effect on lung content of MPO ([2]; versus PBS treated animals) | effect on vascular permeability ([2]; versus PBS treated animals) | IC50 (recombinant E-selectin; read-out: IC50 for inhibition of HL-60 cell binding to recombinant E-selectin) | reduction of hemorrhage [1, 3] | reduction of neutrophil MPO content [1, 3] | reduction of permeability values [1, 3] | dose at which protective effects plateau ([1]; rat, in vivo) | effect on lung MPO content ([2]; 50 μg (FIG. 19)) | effect on lung MPO content ([2]; 100, 200 and 300 μg (FIG. 19)) | effect on vascular permeability ([2]; all doses, 50-500 μg (FIG. 19)) | reduction in MPO content [2, 4] | reduction in permeability [2, 4] | reduction in hemorrhage ([2]; i.v. at 2.5, 3.0 and 3.5 h (FIG. 18), P=N.S.) | effect on hemorrhage ([2]; two highest doses (FIG. 19))
CC(=O)NC1C(O)OC(CO)C(OC2OC(CO)C(O)C(OC3(C(=O)O)CC(O)C(NC(C)=O)C(C(O)C(O)CO)O3)C2O)C1O (centres unmarked) [SLN, reference compound] | not | did not inhibit CVF-induced neutrophil accumulation or CVF-induced lung injury | did not inhibit IgG immune complex induced lung injury | no decrease in hemorrhage | no decrease in lung content of MPO | no alteration in vascular permeability value |  |  |  |  |  |  |  |  |  |  |  | 
CCO[C@@H]1O[C@H](CO)[C@H](O)[C@H](O[C@@H]2O[C@H](CO)[C@@H](O[C@@H]3O[C@H](CO)[C@H](O)[C@H](O[C@]4(C(=O)O)C[C@H](O)[C@@H](NC(C)=O)[C@H]([C@H](O)[C@H](O)CO)O4)[C@H]3O)[C@H](O[C@@H]3O[C@@H](C)[C@@H](O)[C@@H](O)[C@@H]3O)[C@H]2NC(C)=O)[C@H]1O [Z, Ethyl(sodium(5-acetamido-3,5-dideoxy-α-D-glycero-D-galacto-2-nonulopyanosylonate))-(2-3)-O-(β-D-galactopyranosyl)-(1-4)-O-((α-L-fucopyranosyl)-(1-3))-O-(2-acetamido-2-deoxy-β-D-glucopyranosyl)-(1-3)-O-β-D-galactopyranoside] | inhibited in a concentration dependent manner |  | blocked IgG |  |  |  | ~500 µM | 47% | 49% | 67% | 0.6 mg/kg | did not significantly reduce MPO content | significant reductions | significant reductions in vascular permeability | 27% | 20% | 21% | statistically significant reductions in hemorrhage
